Experimental data taken from patent US20260271933A1 (priority 2023, published 2026).

What was measured:
Pythium ultimum = Pythium ultimum / liquid culture (seedling damping off); type: cell-based; details: Globisporangium ultimum, growth inhibition determined photometrically, compared to untreated control
Protocol: Pythium ultimum/Liquid Culture (Seedling Damping Off)
Mycelia fragments and oospores of a newly grown liquid culture of the fungus are directly mixed into nutrient broth (PDB potato dextrose broth). After placing a (DMSO) solution of test compound into a microtiter plate (96-well format), the nutrient broth containing the fungal mycelia/spore mixture is added.
The test plates are incubated at 24° C. and the inhibition of growth is determined photometrically 2-3 days after application.

Phytophthora infestans = assay: whole plant or invertebrate; type: in vivo; details: in Solanum lycopersicum, foliar, read-out: control of Phytophthora infestans
Plasmopara viticola = assay: whole plant or invertebrate; type: in vivo; details: foliar

Structure (SMILES)	inhibition of growth at 20 ppm (Pythium ultimum) [%]	pest or weed control at 200 ppm (Phytophthora infestans) [%]	pest or weed control at 200 ppm (Plasmopara viticola) [%]
COC(=O)Nc1ccc(-c2cnc3ccc(C(=O)N4CCCc5c(F)cccc54)cn23)cn1 [Compound 13, methyl N-[5-[6-(5-fluoro-3,4-dihydro-2H-quinoline-1-carbonyl)imidazo[1,2-a]pyridin-3-yl]-2-pyridyl]carbamate]	≥ 80	–	–
COC(=O)Nc1ccc(-c2cnc3ccc(C(=O)N4CCCc5ccc(OC)cc54)cn23)cn1 [Compound 56, methyl N-[5-[6-(7-methoxy-3,4-dihydro-2H-quinoline-1-carbonyl)imidazo[1,2-a]pyridin-3-yl]-2-pyridyl]carbamate]	≥ 80	–	–
COC(=O)Nc1ccc(-c2cnc3ccc(C(=O)N(C)c4cc(Cl)ccc4OC)cn23)cn1 [Compound 61, methyl N-[5-[6-[(5-chloro-2-methoxy-phenyl)-methyl-carbamoyl]imidazo[1,2-a]pyridin-3-yl]-2-pyridyl]carbamate]	≥ 80	–	–
COC(=O)Nc1ccc(-c2cnc3ccc(C(=O)N(C)c4cc(F)ccc4F)cn23)cn1 [Compound 54, methyl N-[5-[6-[(2,5-difluorophenyl)-methyl-carbamoyl]imidazo[1,2-a]pyridin-3-yl]-2-pyridyl]carbamate]	≥ 80	≥ 80	–
COC(=O)Nc1ccc(-c2cnc3c(C)cc(C(=O)N4CCOc5cc(F)ccc54)cn23)cn1 [Compound 5, methyl N-[5-[6-(7-fluoro-2,3-dihydro-1,4-benzoxazine-4-carbonyl)-8-methyl-imidazo[1,2-a]pyridin-3-yl]-2-pyridyl]carbamate]	≥ 80	≥ 80	–
COC(=O)Nc1ccc(-c2cnc3ccc(C(=O)N(C)c4ccc(Cl)cn4)cn23)cn1 [Compound 68, methyl N-[5-[6-[(5-chloro-2-pyridyl)-methyl-carbamoyl]imidazo[1,2-a]pyridin-3-yl]-2-pyridyl]carbamate]	≥ 80	–	–
COC(=O)Nc1ccc(-c2cnc3ccc(C(=O)N4CCCc5c(C)cccc54)cn23)cn1 [Compound 27, methyl N-[5-[6-(5-methyl-3,4-dihydro-2H-quinoline-1-carbonyl)imidazo[1,2-a]pyridin-3-yl]-2-pyridyl]carbamate]	≥ 80	≥ 80	–
COC(=O)Nc1ccc(-c2cnc3ccc(C(=O)N4CC(C)Cc5ccccc54)cn23)cn1 (stereo not shown) [Compound 8, methyl N-[5-[6-(3-methyl-3,4-dihydro-2H-quinoline-1-carbonyl)imidazo[1,2-a]pyridin-3-yl]-2-pyridyl]carbamate]	≥ 80	–	–
COC(=O)Nc1ccc(-c2cnc3ccc(C(=O)N4CC(O)Cc5ccccc54)cn23)cn1 (stereo not shown) [Compound 43, methyl N-[5-[6-(3-hydroxy-3,4-dihydro-2H-quinoline-1-carbonyl)imidazo[1,2-a]pyridin-3-yl]-2-pyridyl]carbamate]	≥ 80	≥ 80	–
COC(=O)Nc1ccc(-c2cnc3ccc(C(=O)N(C)c4ccc(Cl)cc4F)cn23)cn1 [Compound 53, methyl N-[5-[6-[(4-chloro-2-fluoro-phenyl)-methyl-carbamoyl]imidazo[1,2-a]pyridin-3-yl]-2-pyridyl]carbamate]	≥ 80	–	–
COC(=O)Nc1ccc(-c2cnc3ccc(C(=O)N4CCCc5cc(OC)c(F)cc54)cn23)cn1 [Compound 63, methyl N-[5-[6-(7-fluoro-6-methoxy-3,4-dihydro-2H-quinoline-1-carbonyl)imidazo[1,2-a]pyridin-3-yl]-2-pyridyl]carbamate]	≥ 80	–	–
COC(=O)Nc1ccc(-c2cnc3ccc(C(=O)N(C)c4ccc(F)cc4F)cn23)cc1 [Compound 78, methyl N-[4-[6-[(2,4-difluorophenyl)-methyl-carbamoyl]imidazo[1,2-a]pyridin-3-yl]phenyl]carbamate]	≥ 80	–	≥ 80
COC(=O)Nc1ccc(-c2cnc3ccc(C(=O)N(C)c4ccccc4OC)cn23)cn1 [Compound 60, methyl N-[5-[6-[(2-methoxyphenyl)-methyl-carbamoyl]imidazo[1,2-a]pyridin-3-yl]-2-pyridyl]carbamate]	≥ 80	–	–
COC(=O)Nc1ccc(-c2cnc3ccc(C(=O)N4CCCc5c4ccc(F)c5OC)cn23)cn1 [Compound 62, methyl N-[5-[6-(6-fluoro-5-methoxy-3,4-dihydro-2H-quinoline-1-carbonyl)imidazo[1,2-a]pyridin-3-yl]-2-pyridyl]carbamate]	≥ 80	≥ 80	–
COC(=O)Nc1ccc(-c2cnc3ccc(C(=O)N4CCCc5cc(F)c(F)cc54)cn23)cn1 [Compound 26, methyl N-[5-[6-(6,7-difluoro-3,4-dihydro-2H-quinoline-1-carbonyl)imidazo[1,2-a]pyridin-3-yl]-2-pyridyl]carbamate]	≥ 80	–	–
COC(=O)Nc1ccc(-c2cnc3c(C)cc(C(=O)N(C)c4cccc5c4OCC5)cn23)cn1 [Compound 1, methyl N-[5-[6-[2,3-dihydrobenzofuran-7-yl(methyl)carbamoyl]-8-methyl-imidazo[1,2-a]pyridin-3-yl]-2-pyridyl]carbamate]	–	–	≥ 80
COC(=O)Nc1ccc(-c2cnc3ccc(C(=O)N(C)c4cc(Cl)ccc4C)cn23)cn1 [Compound 47, methyl N-[5-[6-[(5-chloro-2-methyl-phenyl)-methyl-carbamoyl]imidazo[1,2-a]pyridin-3-yl]-2-pyridyl]carbamate]	≥ 80	–	–
COC(=O)Nc1ccc(-c2cnc3ccc(C(=O)N4CCCc5c4ccc(C)c5F)cn23)cn1 [Compound 28, methyl N-[5-[6-(5-fluoro-6-methyl-3,4-dihydro-2H-quinoline-1-carbonyl)imidazo[1,2-a]pyridin-3-yl]-2-pyridyl]carbamate]	≥ 80	–	–
COC(=O)Nc1ccc(-c2cnc3ccc(C(=O)N4c5ccccc5CCC4C)cn23)cn1 (stereo not shown) [Compound 14, methyl N-[5-[6-(2-methyl-3,4-dihydro-2H-quinoline-1-carbonyl)imidazo[1,2-a]pyridin-3-yl]-2-pyridyl]carbamate]	≥ 80	–	–
COC(=O)Nc1ccc(-c2cnc3ccc(C(=O)N4CC(OC)Cc5ccccc54)cn23)cn1 (stereo not shown) [Compound 32, methyl N-[5-[6-(3-methoxy-3,4-dihydro-2H-quinoline-1-carbonyl)imidazo[1,2-a]pyridin-3-yl]-2-pyridyl]carbamate]	≥ 80	≥ 80	–
COC(=O)Nc1ccc(-c2cnc3ccc(C(=O)N(C)c4cccc(Cl)c4Cl)cn23)cn1 [Compound 39, methyl N-[5-[6-[(2,3-dichlorophenyl)-methyl-carbamoyl]imidazo[1,2-a]pyridin-3-yl]-2-pyridyl]carbamate]	–	–	≥ 80
COC(=O)Nc1ccc(-c2cnc3ccc(C(=O)N4CCCc5cc(Cl)cc(F)c54)cn23)cn1 [Compound 17, methyl N-[5-[6-(6-chloro-8-fluoro-3,4-dihydro-2H-quinoline-1-carbonyl)imidazo[1,2-a]pyridin-3-yl]-2-pyridyl]carbamate]	≥ 80	≥ 80	–
CCN(C(=O)c1ccc2ncc(-c3ccc(NC(=O)OC)nc3)n2c1)c1ccccc1C(=O)OC [Compound 59, methyl 2-[ethyl-[3-[6-(methoxycarbonylamino)-3-pyridyl]imidazo[1,2-a]pyridine-6-carbonyl]amino]benzoate]	–	≥ 80	–
COC(=O)Nc1ccc(-c2cnc3ccc(C(=O)N4CCCc5c(C(=O)OC)cccc54)cn23)cn1 [Compound 7, methyl 1-[3-[6-(methoxycarbonylamino)-3-pyridyl]imidazo[1,2-a]pyridine-6-carbonyl]-3,4-dihydro-2H-quinoline-5-carboxylate]	≥ 80	–	≥ 80
COC(=O)Nc1ccc(-c2cnc3ccc(C(=O)N(C)c4cccc(F)c4OC)cn23)cn1 [Compound 12, methyl N-[5-[6-[(3-fluoro-2-methoxy-phenyl)-methyl-carbamoyl]imidazo[1,2-a]pyridin-3-yl]-2-pyridyl]carbamate]	≥ 80	≥ 80	–
COC(=O)Nc1ccc(-c2cnc3ccc(C(=O)N4CCCc5c(OC(F)F)cccc54)cn23)cn1 [Compound 58, methyl N-[5-[6-[5-(difluoromethoxy)-3,4-dihydro-2H-quinoline-1-carbonyl]imidazo[1,2-a]pyridin-3-yl]-2-pyridyl]carbamate]	≥ 80	–	–
COC(=O)Nc1ccc(-c2cnc3ccc(C(=O)N4CCCc5cc(Cl)ccc54)cn23)cn1 [Compound 48, methyl N-[5-[6-(6-chloro-3,4-dihydro-2H-quinoline-1-carbonyl)imidazo[1,2-a]pyridin-3-yl]-2-pyridyl]carbamate]	≥ 80	–	–
COC(=O)Nc1ccc(-c2cnc3ccc(C(=O)N4CC(O)Cc5cc(F)ccc54)cn23)cn1 (stereo not shown) [Compound 24, methyl N-[5-[6-(6-fluoro-3-hydroxy-3,4-dihydro-2H-quinoline-1-carbonyl)imidazo[1,2-a]pyridin-3-yl]-2-pyridyl]carbamate]	≥ 80	≥ 80	–
COC(=O)Nc1ccc(-c2cnc3ccc(C(=O)N(C)c4cccc5c4OCC5)cn23)cn1 [Compound 4, methyl N-[5-[6-[2,3-dihydrobenzofuran-7-yl(methyl)carbamoyl]imidazo[1,2-a]pyridin-3-yl]-2-pyridyl]carbamate]	≥ 80	–	≥ 80
COC(=O)Nc1ccc(-c2cnc3ccc(C(=O)N(C)c4ccccc4C(=O)OC)cn23)cn1 [Compound 46, methyl 2-[[3-[6-(methoxycarbonylamino)-3-pyridyl]imidazo[1,2-a]pyridine-6-carbonyl]-methyl-amino]benzoate]	≥ 80	≥ 80	–
